Source: patent publication US7166472B2, “Method for the identification of agents that inhibit or promote cataracts and uses thereof” (The General Hospital Corporation, priority 2000, dated 2007)

Tests used:
[1] = Cyclic voltammetry of kynurenine metabolites with Cu(II); assay type: physicochemical; conditions: metabolite 100 μM, cupric chloride 25 μM, PBS pH 7.4
Protocol: Cyclic Voltammetry—Cyclic voltammetry was performed at room temperature (22±2° C.) on ambient solutions using an EG&G PAR potentiostat, Model 273. The potentiostat was operated in Ramp Mode, generating a potential staircase waveform with a 0.25 mV step height. The potential window of +0.15 to −0.4V, in which Cu(I) is electroactive, but the metabolites are not, was scanned in both directions at a rate of 100 mV/sec. The current response was passed through a 5.3 Hz low pass filter. A minimum of three cycles were collected for each scan, ensuring the stability of the electrochemical response. The electrochemical cell consisted of an indium/tin oxide working electrode (Delta Technologies) with an active area of 0.32 cm^2, a platinum wire auxiliary electrode, and a Ag/AgCl (1 M KCl) reference electrode (Microelectrodes Inc.). Both the auxiliary and reference electrodes were positioned in the cell in close proximity to the working electrode. The working electrodes were pretreated with successive 10 minute sonications in Alconox (˜8 g/L), 95% ethanol, Milli-Q purified H2O (2×), and PBS (pH 7.4), followed by an overnight soak in PBS (pH 7.4). The ITO electrodes were subsequently “activated” immediately prior to use by successive cycling in PBS for three cycles in each of the following potential windows: +0.15 ? −0.4 V, +0.4 ? −0.4 V, and +1.0 ? −0.4 V. Cupric chloride (25 μM; Allied Chemical) was used as the Cu(II) source. Background voltammograms were obtained on each new electrode before testing the kynurenine pathway metabolites. PBS solutions of KYN, 3-HK, ANA, and 3-HAA (each at 100 μM) were separately scanned with and without added Cu(II) (25 μM). Each experiment also included a scan of Cu(II) (25 μM) in PBS without added test compound. All solutions were tested within minutes of being prepared. Each test was repeated to ensure the reproducibility of the results.
The voltammograms in FIGS. 3A–3D compare 3-HK and 3-HAA to their corresponding non-phenolic analogs, kynurenine (KYN) and anthranilic acid (ANA), in aqueous solutions of Cu(II) at pH 7.4. […] At potentials above +0.15 V, the metabolites undergo direct irreversible oxidation, a reaction that is not considered further here. Cyclic voltammetry of Cu(II) in PBS yielded a current response at ≈−100 mV due to reduction of the metal ion (scan “b” in each panel).

[2] = Hydrogen peroxide assay (DCF fluorometric); assay type: biochemical; conditions: for hydrogen peroxide generated: ambient gas conditions, CHELEX-treated PBS, FIG. 4C
Protocol: Hydrogen Peroxide Assay—The fluorometric assay for hydrogen peroxide is based on the dichlorofluorescein diacetate (DCF) method (Molecular Probes, Eugene, Oreg.). The DCF solution (5 mM) in 100% ethanol was deacetylated in the presence of 0.01 M NaOH for 30 minutes and neutralized. Horseradish peroxidase (200 U/ml) was then added and the DCF concentration adjusted to 200 μM in PBS. The reaction solutions were carried out in PBS, pH 7.4, in a 96-well format plate (total volume=300 μL/well) and contained a test compound (KYN, 3-HK, 3-HAA, ANA, or ASC, each at 10 μM), deacetylated DCF (20 μM), and Cu(II)-glycine (1 μM) as indicated, incubated at 37° C. for 60 minutes. […] Abolition of the reading by co-incubation with catalase (1000 U/ml) was used for establishing H2O2 specificity. The fluorescent readings were recorded by a Packard FLURORCOUNT™ fluorescent plate reader with a 485 nm excitation filter and 530 nm emission filter. Concentrations were determined by comparison to a standard curve using reagent grade hydrogen peroxide in CHELEX™ chelating ion exchanae resin-treated PBS buffer, pH 7.4.
Reactions were conducted in the absence of added Cu(II), in the presence of added glycine-complexed Cu(II) (1 μM), in the presence of added glycine-complexed Cu(II) (1 μM) and catalase (1000 U/ml), or with added glycine-complexed Cu(II) (1 μM) and the copper chelator triethylenetetramine (TETA, 200 μM).

[3] = Superoxide assay (dihydroethidium fluorometric); assay type: biochemical; conditions: for effect of Cu(II) on superoxide generation / superoxide production: test compound 10 μM; for effect of Cu(II) on superoxide generation: Cu(II)-glycine 1 μM; for superoxide production: ambient oxygen, dark, 60 minutes
Protocol: Superoxide Assay—The fluorometric assay for superoxide is based upon the dihydroethidium (DHE, HYDROETHDNE™) method (Molecular Probes, Eugene, Oreg.) and used according to the manufacturer's instructions. DHE (1 mM) was freshly prepared in 100% argon-sparged DMSO. The reaction solutions were carried out in PBS, pH 7.4, under ambient gas conditions, in 96-well format plates and contained a test compound (KYN, 3-HK, 3-HAA, and ANA, each at 10 μM), DHE (100 μM), +/− Cu(II)-glycine (1 μM) and incubated at 37EC for 60 minutes. […] Abolition of the reading by co-incubation with superoxide dismutase (1000 U/ml) was used for establishing superoxide specificity. The fluorescent readings were recorded by a Packard FLUOROCOUNT™ fluorescent plate reader with a 510 nm excitation filter and 590 nm emission filter. Potassium superoxide dissolved in degassed DMSO was used as a positive control.

[4] = biological target: T1, recombinant human αB-crystallin (Homo sapiens, UniProt P02511); assay: Recombinant human αB-crystallin cross-linking (SDS-PAGE, silver stain); assay type: biochemical; conditions: data not shown
T1 construct: gift of Dr. J. Liang, Brigham and Women's Hospital
T1 sequence (P02511 1-175): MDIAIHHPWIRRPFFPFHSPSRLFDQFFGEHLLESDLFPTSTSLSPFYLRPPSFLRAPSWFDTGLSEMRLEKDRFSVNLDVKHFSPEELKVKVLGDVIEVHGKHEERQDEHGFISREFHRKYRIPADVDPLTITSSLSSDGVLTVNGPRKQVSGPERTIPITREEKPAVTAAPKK
Protocol: Various solutions containing 3-HK (10 μM) or other kynurenine pathway metabolites (10 μM), Cu(II)-glycine (10 μM), Fe(III)-citrate (10 μM), and triethylenetetramine (TETA, 200 μM), were added in combinations as indicated. […] After incubation, aliquots of the total lens protein solutions were mixed with sample buffer containing 4% SDS and 5% β-mercaptoethanol, heated to 95° C. for 5 minutes, and loaded at 1 μg/lane on a 10–20% Tricine gel (Novex, San Diego, Calif.). […] For the experiments with recombinant αB-crystallin, aliquots of the protein solutions were mixed with sample running buffer containing NuPAGE sample buffer (Novex, San Diego, Calif.) and 10% β-mercaptoethanol, heated to 95° C. for 5 minutes, spun briefly, then loaded on a NuPAGE 4–12% Bis-Tris polyacrylamide gel at 375 ng/lane and electrophoresed with denaturing 3-(N-morpholino)propanesulfonic acid (MOPS)-SDS running buffer according to the manufacturer's recommendations.
To exclude the effects of other lens proteins on the observed findings in FIG. 5, these interactions with purified recombinant human αB-crystallin were examined.

[5] = Metal reduction assay, Cu(II) to Cu(I) (BC/BCA indicator); assay type: biochemical; conditions: chelator 250 μM
Protocol: Metal Reduction Assays—Assays were performed using a 96-well microtiter plate (Costar, Mass.). Test compounds from the kynurenine pathway (10 μM) or, as a positive control, ascorbic acid (ASC, 10 μM) were co-incubated with either Fe(III)-citrate (25 μM) and the Fe(II) indicator bathophenanthroline disulfonic acid (BP, 250 μM), or Cu(II)-glycine (25 μM) and the Cu(I) indicator bathocuproine disulfonic acid (BC) or bicinchoninic acid (BCA, 250 μM). Incubations were conducted in PBS, pH 7.4, at 37° C. in the dark for one hour. Absorbencies were then measured using a plate reader (SPECTRAmax Plus, Molecular Devices, CA) at the appropriate wavelengths: Fe(II)-BP complex at 535 nm (the known molar absorption coefficient, M535,=22140 M^−1 cm^−1), Cu(I)-BC complex at 483 nm, M483=12250 M^−1cm^−1), or Cu(I)-BCA complex at 562 nm, M562=7700 M^−1cm^−1). In control samples, absorbance from the metal ion and indicator in the absence of test compound and the absorbance of test compound in the presence of metal ions, but in the absence of indicator, were determined. The absorbencies from these controls were deducted from those obtained in the presence of the test compound, metal and indicator to yield the net absorbance (ΔA). Fe(II) or Cu(I) concentrations (μM) were calculated according to the formula: C(μM)=ΔA*10^6/Mλ.
The compounds comprising the kynurenine pathway (FIG. 1) were assayed for their ability to reduce […] and Cu(II) (FIG. 2A). […] Values represent the mean±SD for three independent measurements.

[6] = biological target: T2, αB-crystallin (Bos taurus, UniProt P02510); assay: αB-crystallin cross-linking in total calf lens protein (Western blot); conditions: metabolite 10 μM, no added Cu(II), five days 37° C. dark
T2 sequence (P02510 1-175): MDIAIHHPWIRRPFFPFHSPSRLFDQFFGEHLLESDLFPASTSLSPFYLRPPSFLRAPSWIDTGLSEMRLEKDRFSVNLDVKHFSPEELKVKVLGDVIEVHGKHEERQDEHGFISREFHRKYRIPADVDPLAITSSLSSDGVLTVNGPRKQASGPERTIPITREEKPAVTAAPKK

[7] = biological target: T3, α-crystallin (Bos taurus, UniProt P02470+P02510); assay: α-Crystallin modification under longwave ultraviolet illumination; assay type: biochemical; conditions: exposure of α-crystallin in the presence of longwave ultraviolet illumination
T3 sequence (P02470 1-173): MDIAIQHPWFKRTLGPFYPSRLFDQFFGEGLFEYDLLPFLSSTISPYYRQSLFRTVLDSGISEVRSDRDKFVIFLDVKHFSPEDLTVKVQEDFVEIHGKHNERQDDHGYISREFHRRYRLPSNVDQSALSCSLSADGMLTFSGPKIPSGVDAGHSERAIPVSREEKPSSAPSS
T3 sequence (P02510 1-175): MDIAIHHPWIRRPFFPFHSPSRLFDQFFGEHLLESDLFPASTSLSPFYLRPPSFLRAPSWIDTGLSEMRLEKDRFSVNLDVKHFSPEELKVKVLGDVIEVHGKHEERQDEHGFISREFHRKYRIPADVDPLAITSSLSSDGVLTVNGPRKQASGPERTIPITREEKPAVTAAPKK

[8] = Metal reduction capacity of tanned calf lens α-crystallin, Cu(II); assay type: biochemical; conditions: α-crystallin preparation 100 μg/ml, Cu(II)-glycine 25 μM, one hour 37° C.
Protocol: Studies of Tanned Calf Lens Crystalin in Assay of Crystallin Protein for Metal Reduction Capacity—α-Crystallin (10 mg/ml) from calf lens was modified by reaction with 3-HK (100 μM), 3-HAA (100 μM), or ASC (100 μM) in PBS, ph 7.4, for 12 hours at 4° C. in the dark. Control samples were incubated with ascorbic acid (100 μM) or without added reductant. The tanning incubation solutions also contained triethylenetetramine (TETA, 200 μM) to prevent cross-linking of the protein. After incubation, free reductant was removed from the tanned α-crystallin preparations by exhaustive dialysis at 4EC in the dark utilizing PBS, pH 7.4, containing CHELEX™ 100 chelating ion exchange resin (BioRad, Hercules, Calif.). The various modified α-crystallin preparations (100 μg/ml) were co-incubated with either Cu(II)-glycine glycine (25 μM) or Fe(III)-citrate (25 μM) for one hour at 37° C. and assayed for metal reduction capacity using the BC and BP spectrophotometric assay as detailed above. Incubated and dialyzed α-crystallin (100 μg/ml) and untreated α-crystallin (100 μg/ml) preparations were used for procedural control.
3-HK: α-crystallin reduced nearly 100% of the available Cu(II) and approximately 20% of the available Fe(III). 3-HAA: α-crystallin reduced approximately 65% of the available Cu(II).

## Nc1ccccc1C(=O)O [ANA, anthranilic acid]
[1]
  Cu(II) reduction wave in presence of metabolite: largely unaffected
[2]
  hydrogen peroxide generated: approx. 0.3 μM
[3]
  effect of Cu(II) on superoxide generation: did not promote
  superoxide production: negligible

## C[S+](C)[O-] [DMSO, dimethyl sulfoxide]
[4]
  inhibition of αB-crystallin cross-linking by 3-HK or 3-HAA and Cu(II): did not inhibit

## O=C(O)CN(CCN(CC(=O)O)CC(=O)O)CCN(CC(=O)O)CC(=O)O [DTPA, diethylenetriaminepentaacetic acid, reference compound]
[5]
  effect of chelator on metal reduction by 3-HK, 3-HAA and XA: abolished

## Nc1ccccc1C(=O)C[C@H](N)C(=O)O [KYN, L-kynurenine]
[6]
  αB-crystallin cross-linking: does not induce
[1]
  Cu(II) reduction wave in presence of metabolite: largely unaffected
[2]
  hydrogen peroxide generated: approx. 0.3 μM
[3]
  effect of Cu(II) on superoxide generation: did not promote
  superoxide production: negligible
[7]
  capacity of altered α-crystallin to reduce metal and generate hydrogen peroxide: dramatically enhanced capacity

## OC[C@@H](O)[C@@H](O)[C@H](O)[C@H](O)CO [mannitol]
[4]
  inhibition of αB-crystallin cross-linking by 3-HK or 3-HAA and Cu(II): did not inhibit

## O=C(O)c1ccccc1O [salicylate]
[4]
  inhibition of αB-crystallin cross-linking by 3-HK or 3-HAA and Cu(II): did not inhibit

## catalase [reference compound]
[2]; Cu(II) 1 μM, catalase 1000 U/ml or TETA 200 μM
  effect on hydrogen peroxide generation by 3-HK or 3-HAA: abolished
[4]
  inhibition of αB-crystallin cross-linking by 3-HK or 3-HAA and Cu(II): neither catalase nor superoxide dismutase were capable of inhibiting

## superoxide dismutase [reference compound]
[4]
  inhibition of αB-crystallin cross-linking by 3-HK or 3-HAA and Cu(II): neither catalase nor superoxide dismutase were capable of inhibiting
[3]; superoxide dismutase 1000 U/ml
  effect on superoxide production by 3-HAA: removed

B1: 3-HAA: α-crystallin: calf lens α-crystallin modified (tanned) by reaction with 3-HAA, free metabolite removed by dialysis (protein, UniProt P02470 1-173; P02510 1-175, looked up)
Alpha-crystallin A chain: MDIAIQHPWFKRTLGPFYPSRLFDQFFGEGLFEYDLLPFLSSTISPYYRQSLFRTVLDSGISEVRSDRDKFVIFLDVKHFSPEDLTVKVQEDFVEIHGKHNERQDDHGYISREFHRRYRLPSNVDQSALSCSLSADGMLTFSGPKIPSGVDAGHSERAIPVSREEKPSSAPSS
Alpha-crystallin B chain: MDIAIHHPWIRRPFFPFHSPSRLFDQFFGEHLLESDLFPASTSLSPFYLRPPSFLRAPSWIDTGLSEMRLEKDRFSVNLDVKHFSPEELKVKVLGDVIEVHGKHEERQDEHGFISREFHRKYRIPADVDPLAITSSLSSDGVLTVNGPRKQASGPERTIPITREEKPAVTAAPKK
modifications: modified with 3-hydroxyanthranilic acid
notes: calf lens α-crystallin modified (tanned) by reaction with 3-HAA, free metabolite removed by dialysis
[8]
  reduction of available Cu(II): approximately 65%
